Tests used:
[1] = UV absorbance profile: λmax in solvents, FLUOstar plate reader; format: physicochemical; conditions: for λmax double peak, first peak / λmax double peak, second peak: 50 μM
Description: Compound #2 (OOD), Univul A plus (DHHB)+Octocrylene (OCR) were dissolved in a solvent at the same concentration (125 μM).
Compound #4 (OHD), Univul A plus (DHHB)+Octocrylene (OCR) were dissolved in a solvent at the same concentration (125 μM).
Compound #5 (BOO) and BEMT (6,6′-(6-(4-methoxyphenyl)-1,3,5-triazine-2,4-diyl)bis(3-((2-ethylhexyl)oxy)phenol)=Tinosorb S)+Octocrylene (OCR) were dissolved in a solvent at the same concentration (50 μM).
UV Absorbance Profil of Compound #6 (BOO-OM) Compound #6 (BOO-OM) and BEMT (6,6′-(6-(4-methoxyphenyl)-1,3,5-triazine-2,4-diyl)bis(3-((2-ethylhexyl)oxy)phenol)=Tinosorb S)+Octocrylene (OCR) were dissolved in a solvent at the same concentration (50 μM).

[2] = Solubility in sunscreen solvents; format: physicochemical; conditions: 50° C.
Description: Compound #2 (OOD) and a sunscreen solvent were weighed in a Becher. The Becher was placed on a magnetic stir plate, heated up to 50° C., and the solution was vigorously mixed with a bar magnet.
Compound #4 (OHD) and a sunscreen solvent were weighed in a Becher. The Becher was placed on a magnetic stir plate, heated up to 50° C., and the solution was vigorously mixed with a bar magnet.
Compound #5 (BOO) and a sunscreen solvent were weighed in a Becher. The Becher was placed on a magnetic stir plate, heated up to 50° C., and the solution was vigorously mixed with a bar magnet.
Compound #6 (BOO-OM) and a sunscreen solvent were weighed in a Becher. The Becher was placed on a magnetic stir plate, heated up to 50° C., and the solution was vigorously mixed with a bar magnet.

pig skin = test: UV protection ex vivo on pig skin by autofluorescence quenching
Description: UV Protection Performance of Compound #2 (OOD) UVB and UVA protections have been assessed ex vivo on pig skin by measuring the autofluorescence quenching. OOD (Compound #2), the mix of DHHB+OCR were solubilized at the same molar concentration in Dottisol (isosorbide dimethyl ether), covered 6.25 cm2 skin square and incubated 20 min or 2 hours at room temperatures, and then 7 mm skin punches were cut and placed in a black 96-well plate. UVB and UVA protections were measured after respectively an excitation at 300 nm and 355 nm and a fluorescence emission was read at 460 nm. DMSO was added on the pig skin before the reading of the residual fluorescence.
UVB and UVA protections have been assessed ex vivo on pig skin by measuring the autofluorescence quenching. BOO (Compound #5) and the mix of BEMT+OCR were solubilized at the same molar concentration in Dottisol (isosorbide dimethyl ether), covered 6.25 cm^2 skin square and incubated 4 hours at 34° C., washed or not with 10 mL Ethanol for 5 min, and then 7 mm diameter skin punches were cut and placed in a black 96-well plate. UVB and UVA protections were measured after respectively an excitation at 300 nm and 355 nm and a fluorescence emission was read at 460 nm.
UVB protection has been assessed ex vivo on pig skin by measuring the autofluorescence quenching. BOO (Compound #5), BOO-OM (Compound #6) and the mix of BEMT+OCR were solubilized at the same molar concentration in DMDA (dimethyl capramide), covered 6.25 cm2 skin square and incubated 2 hours at 34° C., washed or not with 10 mL Ethanol for 5 min, and then 7 mm diameter skin punches were cut and placed in a black 96-well plate. UVB protection was measured after respectively an excitation at 300 nm and a fluorescence emission was read at 460 nm.

[3] = tested on: thiolated polylysine matrix; test: Bio adhesion on thiolated polylysine matrix (UV absorbance at 310 nm after ethanol washes); conditions: overnight incubation in ethanol/PBS (90%/10%), washed 10 times with ethanol
Description: (§1) Polylysine and Polylysine enriched in SH by thiolation of primary amines using Traut's reagent were used for coating 96-well microplates. UV filters (BOO and BOO-OM) were incubated overnight under orbital agitation on the different matrices (n=3 for each condition) (uncoated wells were used as negative controls), in an ethanol/PBS (90%/10%) solution. After incubation, each microplate well was thoroughly washed 10 times with ethanol, before measuring UV absorbance. Whole UV/Visible absorbance spectrum from 220 to 1000 nm were measured in the center of each microplate well. In addition, specific UV absorbance at 310 nm was measured by matrix scan over the whole the well as a 10×10 matrix.

[4] = tested on: polylysine matrix (non thiolated); test: Bio adhesion on polylysine matrix (non thiolated); conditions: overnight incubation in ethanol/PBS (90%/10%), washed 10 times with ethanol
Description: as §1

λmax double peak, first peak ([1]; Dottisol): 290 nm
λmax double peak, second peak ([1]; Dottisol): 307 nm
λmax double peak, first peak ([1]; Dubdis): 289 nm
λmax double peak, second peak ([1]; Dubdis): 309 nm
λmax absorbance shift in UVB versus the mix of BEMT-OCR ([1]; same molar concentration, Dubdis, same shift in Dottisol): ≥ 20 nm
soluble at ratio ([2]; Dimethyl capramide (Spectrasolv DMDA)): 1/10
soluble at ratio ([2]; Dottisol (dimethyl isosorbide)): ½
soluble at ratio ([2]; Dubdis (Diisopropyl sebacate)): ½
Compound: CCCCC(CC)COc1ccc(-c2nc(-c3ccc(OC)cc3)nc(-c3ccc(OCC(CC)CCCC)cc3OCCCCCCCCN3C(=O)C=CC3=O)n2)c(OCCCCCCCCNC(=O)C(C#N)=C(c2ccccc2)c2ccccc2)c1 (stereo not drawn) [Compound #6, 2-cyano-N-(8-(2-(4-(2-((8-(2,5-dioxo-2,5-dihydro-1H-pyrrol-1-yl)octyl)oxy)-4-((2-ethylhexyl)oxy)phenyl)-6-(4-methoxyphenyl)-1,3,5-triazin-2-yl)-5-((2-ethylhexyl)oxy)phenoxy)octyl)-3,3-diphenylacrylamide]
UVB protection of the pig skin compared to the mix OCR+BEMT (pig skin; 2 h incubation, DMDA): similar
bio adhesive (pig skin, ethanol wash) (pig skin; conclusion from UVB protection after ethanol wash): is bio adhesive
UVB Fluorescence (Ex300/Em460) No Wash (pig skin; pig skin autofluorescence after 2 h of incubation, DMDA (dimethyl capramide), Mean +/− SD, N = 3): 40608 +/− 3466
UVB Fluorescence (Ex300/Em460) EtOH Wash (pig skin; pig skin autofluorescence after 2 h of incubation, DMDA, 10 mL Ethanol 5 min, Mean +/− SD, N = 3): 108875 +/− 4401
UVB protection after ethanol wash compared to the initial protection before washing (pig skin; pig skin, 2 h incubation, DMDA): reduced twice
bio adhesion, UV absorbance at 310 nm [3]: showed a bio adhesion
bioadhesion [4]: no bioadhesion
